From US10858339B2, “Aryl cyclopropyl-amino-isoquinolinyl amide compounds” (priority 2017, dated 2020)
Where a name gives a salt, the structure may show the parent alone.
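Wherever JAK2 activity is given: JAK2 kinase reaction run 75 min at room temperature, leftover ATP read by Kinase-Glo luminescence, 11-point dilution series in 2.5% DMSO, percent of inhibitor-free DMSO control.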

Each molecule was assayed against Rho Kinase (assay: ROCK kinase inhibition assay (Rho Kinase Activity, isoform not given)). Settings: Table 15, mostly given as ranges.
Format: biochemical
Experimental: All compounds were initially prepared as 10 mM stocks in anhydrous dimethylsulfoxide (DMSO). A 20 μl aliquot of the 10 mM solutions was transferred to individual wells in column 1 of a 96-well polypropylene microtiter plate (Corning #3363) and diluted with DMSO to give a final compound concentration of 4 mM. Test compounds were then serially diluted 1:5 in DMSO for an 11-point concentration response and further diluted in the assay buffer bringing all compound concentrations to a final range of 100 μM to […] in 2.5% DMSO. The assay was performed in white 96-well, flat-bottom, half-area, non-binding assay plate (Corning #3642) in assay buffer consisting of 20 mM HEPES (pH 7.5), 10 mM MgCl2*6H2O, 100 μM sodium orthovanadate, 0.05% CHAPS and 0.1% bovine serum albumin. A 10 μL aliquot of compound from each well of the intermediate dilution plate and 20 μL of a 2× substrate/enzyme solution containing acceptor substrate (800 nM RSK2 peptide […] (SEQ ID NO: 1)), ROCK2 enzyme (10 nM), or ROCK1 enzyme, and 1,4-Dithiothreitol (DTT, 2 uM) were added to all wells. The reaction was initiated by the addition of 10 μL of 4× stock solution ATP (2 μM). Reactions were thoroughly mixed manually, covered and allowed to incubate at room temperature for 75 min. Protein kinase activity was quantitated using Promega's KINASE-GLO™ luminescent Kinase Assay Kit according to the manufacturer's directions. ATP concentrations remaining in Test wells following the termination of the enzymatic reaction were compared against control wells containing equivalent amounts of DMSO containing no inhibitor (CTRL). […] Percent of Control (POC) values were determined for each concentration of compound tested according to the equation: POC=((Test well value−BKG)/(CTRL−BKG))*100
IC50 values were converted to K; […]
`O=C(Nc1ccc2cnccc2c1)C1CC1c1ccccc1` (stereo not drawn) showed a Ki of 0.005 to 0.013 µM. Molecule `O=C(Nc1ccc2cnccc2c1)C1CC1c1ccc(COCc2ccccc2)cc1` (stereo not drawn) has a Ki of 0.35 to 0.6 µM. In the case of `O=C1CC(c2ccccc2)CN1c1ccc2cnccc2c1` (stereo not drawn), the Ki is reported as 0.65 to 1.35 µM. For `O=C(OCc1ccccn1)c1ccc([C@@H]2C[C@H]2C(=O)Nc2ccc3cnccc3c2)cc1` (racemic) [Example E99, trans-pyridin-2-ylmethyl 4-(2-(isoquinolin-6-ylcarbamoyl)cyclopropyl) benzoate], the Ki was 0.0005 to 0.006 µM. `O=Cc1ccc([C@@H]2C[C@H]2C(=O)Nc2ccc3cnccc3c2)cc1` (racemic) [Example E159, trans-2-(4-formylphenyl)-N-(isoquinolin-6-yl)cyclopropane-1-carboxamide] showed a Ki of 0.02 to 0.05 µM. `O=C(Nc1ccc2cnccc2c1)[C@@H]1C[C@H]1c1ccc(S(=O)(=O)N2CCNCC2)cc1` (racemic) [Example E248H, trans)-N-(isoquinolin-6-yl)-2-(4-(piperazin-1-ylsulfonyl)phenyl) cyclopropane-1-carboxamide dihydrochloride] was tested, and the Ki was 0.03 to 0.05 µM. In the case of `O=C(NCc1cccnc1)c1ccc([C@@H]2C[C@H]2C(=O)Nc2ccc3cnccc3c2)cc1` (relative stereo) [Example E8, trans-4-(2-(isoquinolin-6-ylcarbamoyl)cyclopropyl)-N-(pyridin-3-ylmethyl)benzamide], the Ki is reported as 0.001 to 0.01 µM. With `O=C(OCc1ccccc1)c1ccc([C@@H]2C[C@H]2C(=O)Nc2ccc3cnccc3c2)cc1` (relative stereo) [Example E96, trans-benzyl 4-(2-(isoquinolin-6-ylcarbamoyl)cyclopropyl)benzoate] the Ki was 0.02 to 0.13 µM. Molecule `O=C(NCc1cccc(F)c1)OCc1ccc([C@@H]2C[C@H]2C(=O)Nc2ccc3cnccc3c2)cc1` (relative stereo) [Example E142, trans-4-(2-(isoquinolin-6-ylcarbamoyl)cyclopropyl)benzyl (3-fluorobenzyl)carbamate] has a Ki of 0.03 to 0.8 µM. `O=C(Nc1ccc2cnccc2c1)[C@@H]1C[C@H]1c1ccc(CNCc2cccnc2)cc1` (relative stereo) [Example E160, trans-N-(isoquinolin-6-yl)-2-(4-(((pyridin-3-ylmethyl)amino)methyl)phenyl)cyclopropane-1-carboxamide] showed a Ki of 0.25 to 0.8 µM. `O=C(OCc1ccccc1)c1cccc([C@@H]2C[C@H]2C(=O)Nc2ccc3cnccc3c2)c1` (relative stereo) [Example E170, trans-benzyl 3-(2-(isoquinolin-6-ylcarbamoyl)cyclopropyl)benzoate] showed a Ki of 0.65 to 1.25 µM. `CC(C)(C)OC(=O)c1ccc([C@@H]2C[C@H]2C(=O)Nc2ccc3cnccc3c2)c(F)c1` (relative stereo) [Example E191, trans-tert-butyl 3-fluoro-4-(2-(isoquinolin-6-ylcarbamoyl)cyclopropyl)benzoate] showed a Ki of 0.125 to 0.185 µM. In the case of `COc1ccc(CNC(=O)c2ccc([C@@H]3C[C@H]3C(=O)Nc3ccc4cnccc4c3)c(F)c2)cc1` (relative stereo) [Example E193, trans-3-fluoro-4-(2-(isoquinolin-6-ylcarbamoyl)cyclopropyl)-N-(4-methoxybenzyl)benzamide], the Ki is reported as 0.006 to 0.008 µM. `O=C(Nc1ccc2cnccc2c1)[C@@H]1C[C@H]1c1ccc(OCc2ccccc2)cc1` (relative stereo) [Example E210, trans-2-(4-(benzyloxy)phenyl)-N-(isoquinolin-6-yl)cyclopropane-1-carboxamide] was tested, and the Ki was 0.06 to 0.3 µM. Molecule `O=C(Nc1ccc2cnccc2c1)[C@@H]1C[C@H]1c1ccc(S(=O)(=O)Nc2ccccc2)cc1` (relative stereo) [Example E247A, trans-N-(isoquinolin-6-yl)-2-(4-(N-phenylsulfamoyl)phenyl) cyclopropane-1-carboxamide] has a Ki of 0.07 to 0.35 µM. Molecule `O=C(Nc1ccc2cnccc2c1)[C@@H]1C[C@H]1c1ccc(S(=O)(=O)NCC2CCNCC2)cc1` (relative stereo) [Example E248D, trans-N-(isoquinolin-6-yl)-2-(4-(N-(piperidin-4-ylmethyl)sulfamoyl)phenyl) cyclopropane-1-carboxamide dihydrochloride] has a Ki of 0.005 to 0.009 µM. Work on `O=C(Nc1ccc2cncc(Cl)c2c1)[C@@H]1C[C@H]1c1ccc(S(=O)(=O)NC[C@H]2CCCNC2)cc1` [E250E*] yielded a Ki of 0.009 to 0.011 µM. For `O=C(NCc1ccncc1)c1ccc(C2CC2C(=O)Nc2ccc3cnccc3c2)cc1` (stereo not drawn) [Example E10], the Ki was 0.001 to 0.007 µM. `O=C(NCc1ccc(Cl)cc1)c1ccc(C2CC2C(=O)Nc2ccc3cnccc3c2)cc1` (stereo not drawn) [Example E14] gave a Ki of 0.003 to 0.043 µM. Molecule `O=C(NCc1ccc(OC(F)(F)F)cc1)c1ccc(C2CC2C(=O)Nc2ccc3cnccc3c2)cc1` (stereo not drawn) [Example E15.1] has a Ki of 0.065 to 0.11 µM. In the case of `COc1ccc(CNC(=O)c2ccc(C3CC3C(=O)Nc3ccc4cnccc4c3)cc2)cc1` (stereo not drawn) [Example E15], the Ki is reported as 0.001 to 0.005 µM. Molecule `O=C(NCc1cccs1)c1ccc(C2CC2C(=O)Nc2ccc3cnccc3c2)cc1` (stereo not drawn) [Example E17] has a Ki of 0.002 to 0.004 µM. `CC(C)(C)OC(=O)N1CCCC(CNC(=O)c2ccc(C3CC3C(=O)Nc3ccc4cnccc4c3)cc2)C1` (stereo not drawn) [Example E30.1] was tested, and the Ki was 0.01 to 0.037 µM. `O=C(NCC1CCCNC1)c1ccc(C2CC2C(=O)Nc2ccc3cnccc3c2)cc1` (stereo not drawn) [Example E30.2] was tested, and the Ki was 0.001 to 0.008 µM. `Cc1nccc2cc(NC(=O)C3CC3c3ccc(C(=O)NCc4cccnc4)cc3)ccc12` (stereo not drawn) [Example E36] was tested, and the Ki was 0.075 to 0.2 µM. For `O=C(Nc1ccc(Oc2ccccc2)cc1)c1ccc(C2CC2C(=O)Nc2ccc3cnccc3c2)cc1` (stereo not drawn) [Example E39.1], the Ki was 0.075 to 0.11 µM. Molecule `O=C(NCc1ccccc1)c1ccc([C@@H]2C[C@H]2C(=O)Nc2ccc3cnccc3c2F)cc1` [Example E115.1] has a Ki of 0.0001 to 0.001 µM. `CC(C)(C)OC(=O)N1CCC(CNCc2ccc(C3CC3C(=O)Nc3ccc4cnccc4c3)cc2)CC1` (stereo not drawn) [Example E162.1] was tested, and the Ki was 0.2 to 0.6 µM. For `O=C(Nc1ccc2cnccc2c1)C1CC1c1ccc(CNCC2CCNCC2)cc1` (stereo not drawn) [Example E162.2], the Ki was 0.125 to 0.3 µM. `O=C(NCc1ccncc1)c1cccc(C2CC2C(=O)Nc2ccc3cnccc3c2)c1` (stereo not drawn) [Example E174] was tested, and the Ki was 0.00015 to 0.0003 µM. Work on `O=C(NCc1ccc2ccncc2c1)c1ccc(C2CC2C(=O)Nc2ccc3cnccc3c2)cc1F` (stereo not drawn) [Example E195.1] yielded a Ki of 0.004 to 0.007 µM. For `CC(C)(C)OC(=O)N1CCC(CNC(=O)c2ccc(C3CC3C(=O)Nc3ccc4cnccc4c3)cc2F)CC1` (stereo not drawn) [Example E195.2], the Ki was 0.0004 to 0.001 µM. `O=C(NCc1ccc(Cl)cc1)c1ccc(C2CC2C(=O)Nc2ccc3cnccc3c2)c(F)c1` (stereo not drawn) [Example E195] gave a Ki of 0.07 to 0.1 µM. Work on `C[C@@H]1OC(c2ccc(C3CC(=O)N(c4ccc5cnccc5c4)C3)cc2)O[C@H]1C` (stereo partly drawn) [Example E223, 4-(4-((4S,5S)-4,5-dimethyl-1,3-dioxolan-2-yl)phenyl)-1-(isoquinolin-6-yl)pyrrolidin-2-one] yielded a Ki of 8 to 15 µM. In the case of `O=Cc1ccc(C2CC(=O)N(c3ccc4cnccc4c3)C2)cc1` (stereo not drawn) [Example E224, 4-(1-(isoquinolin-6-yl)-5-oxopyrrolidin-3-yl)benzaldehyde], the Ki is reported as 2.6 to 6.75 µM. In the case of `O=C1CC(c2ccc(CNCc3cccnc3)cc2)CN1c1ccc2cnccc2c1` (stereo not drawn) [Example E225, 1-(isoquinolin-6-yl)-4-(4-(((pyridin-3-ylmethyl)amino)methyl)phenyl)pyrrolidin-2-one], the Ki is reported as 1.35 to 2.2 µM. With `O=C1CC(c2ccc(CNCc3ccccn3)cc2)CN1c1ccc2cnccc2c1` (stereo not drawn) [Example E226] the Ki was 1.9 to 9.3 µM. Molecule `CC(C)(C)OC(=O)N1CCC(CNCc2ccc(C3CC(=O)N(c4ccc5cnccc5c4)C3)cc2)CC1` (stereo not drawn) [Example E227.1] has a Ki of 1.3 to 4 µM. With `O=C1CC(c2ccc(CNCC3CCNCC3)cc2)CN1c1ccc2cnccc2c1` (stereo not drawn) [Example E227.2] the Ki was 0.3 to 0.6 µM. With `CC(C)(C)OC(=O)c1ccc(C2CC(=O)N(c3ccc4cnccc4c3)C2)cc1` (stereo not drawn) [Example E230, tert-butyl 4-(1-(isoquinolin-6-yl)-5-oxopyrrolidin-3-yl)benzoate] the Ki was 14 to 25 µM. Work on `CC(C)(C)OC(=O)c1ccc(C2CC(=O)N(c3ccc4cnccc4c3)C2)cc1F` (stereo not drawn) [Example E230.1] yielded a Ki of 9.3 µM. `O=C(O)c1ccc(C2CC(=O)N(c3ccc4cnccc4c3)C2)cc1` (stereo not drawn) [Example E231, 4-(1-(isoquinolin-6-yl)-5-oxopyrrolidin-3-yl)benzoic acid] was tested, and the Ki was 34 to 68 µM. With `O=C(NCc1cccnc1)c1ccc(C2CC(=O)N(c3ccc4cnccc4c3)C2)cc1` (stereo not drawn) [Example E232, 4-(1-(isoquinolin-6-yl)-5-oxopyrrolidin-3-yl)-N-(pyridin-3-ylmethyl)benzamide] the Ki was 6.5 to 16 µM. With `O=C(NCC1CCNCC1)c1ccc(C2CC(=O)N(c3ccc4cnccc4c3)C2)cc1` (stereo not drawn) [Example E234.2] the Ki was 1 to 1.25 µM. Work on `O=C(Nc1ccc2cnccc2c1)[C@@H]1C[C@H]1c1ccc(S(=O)(=O)NC[C@@H]2CCCNC2)cc1` [Example E248F, trans-N-(isoquinolin-6-yl)-2-(4-(N—(((R)-piperidin-3-yl)methyl)sulfamoyl)phenyl)-cyclopropane-1-carboxamide dihydrochloride] yielded a Ki of 0.003 to 0.005 µM.

What follows are molecules tested against JAK2 (Homo sapiens, UniProt O60674) (assay: JAK kinase assay, JAK2 enzyme). Settings: Table 15; in brackets in the activity cell; read-out: JAK2 activity.
JAK2, sequence (O60674 whole entry, species assumed): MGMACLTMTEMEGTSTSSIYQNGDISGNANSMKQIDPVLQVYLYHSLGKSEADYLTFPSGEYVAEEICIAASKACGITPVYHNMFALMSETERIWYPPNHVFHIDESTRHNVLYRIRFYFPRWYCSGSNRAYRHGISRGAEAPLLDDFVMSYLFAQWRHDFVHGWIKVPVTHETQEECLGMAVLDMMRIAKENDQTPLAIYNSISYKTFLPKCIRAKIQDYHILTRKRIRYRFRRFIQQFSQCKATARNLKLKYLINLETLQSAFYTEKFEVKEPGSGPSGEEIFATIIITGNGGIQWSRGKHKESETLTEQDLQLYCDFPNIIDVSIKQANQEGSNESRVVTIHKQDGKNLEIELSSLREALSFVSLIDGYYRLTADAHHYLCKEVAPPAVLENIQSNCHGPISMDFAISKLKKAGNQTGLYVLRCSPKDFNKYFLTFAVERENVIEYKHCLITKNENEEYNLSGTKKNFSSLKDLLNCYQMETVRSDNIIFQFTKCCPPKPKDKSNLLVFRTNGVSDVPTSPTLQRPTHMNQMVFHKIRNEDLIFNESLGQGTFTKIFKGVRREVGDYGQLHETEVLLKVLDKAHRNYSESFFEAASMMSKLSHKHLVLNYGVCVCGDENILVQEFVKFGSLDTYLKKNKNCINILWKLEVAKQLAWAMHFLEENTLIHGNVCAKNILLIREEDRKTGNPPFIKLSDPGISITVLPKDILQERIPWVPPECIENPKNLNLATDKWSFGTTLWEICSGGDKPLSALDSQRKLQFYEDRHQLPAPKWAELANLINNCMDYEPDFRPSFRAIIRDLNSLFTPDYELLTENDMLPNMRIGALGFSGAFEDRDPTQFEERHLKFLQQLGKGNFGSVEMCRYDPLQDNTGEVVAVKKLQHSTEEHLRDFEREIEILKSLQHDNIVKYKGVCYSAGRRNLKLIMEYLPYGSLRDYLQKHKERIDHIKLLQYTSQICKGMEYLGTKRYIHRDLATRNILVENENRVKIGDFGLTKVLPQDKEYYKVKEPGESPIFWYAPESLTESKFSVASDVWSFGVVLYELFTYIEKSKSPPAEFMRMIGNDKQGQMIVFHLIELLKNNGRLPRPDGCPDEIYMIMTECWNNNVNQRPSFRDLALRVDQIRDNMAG
Format: biochemical
`O=C(OCc1ccccn1)c1ccc([C@@H]2C[C@H]2C(=O)Nc2ccc3cnccc3c2)cc1` (racemic) [Example E99, trans-pyridin-2-ylmethyl 4-(2-(isoquinolin-6-ylcarbamoyl)cyclopropyl) benzoate] gave a Ki of 0.25 to 0.6 µM. In the case of `O=Cc1ccc([C@@H]2C[C@H]2C(=O)Nc2ccc3cnccc3c2)cc1` (racemic) [Example E159, trans-2-(4-formylphenyl)-N-(isoquinolin-6-yl)cyclopropane-1-carboxamide], the Ki is reported as 0.27 µM. Work on `O=C(NCc1cccnc1)c1ccc([C@@H]2C[C@H]2C(=O)Nc2ccc3cnccc3c2)cc1` (relative stereo) [Example E8, trans-4-(2-(isoquinolin-6-ylcarbamoyl)cyclopropyl)-N-(pyridin-3-ylmethyl)benzamide] yielded a Ki of 0.2 µM. With `O=C(OCc1ccccc1)c1ccc([C@@H]2C[C@H]2C(=O)Nc2ccc3cnccc3c2)cc1` (relative stereo) [Example E96, trans-benzyl 4-(2-(isoquinolin-6-ylcarbamoyl)cyclopropyl)benzoate] the Ki was 1.6 to 5 µM. For `CC(C)(C)OC(=O)c1ccc([C@@H]2C[C@H]2C(=O)Nc2ccc3cnccc3c2)c(F)c1` (relative stereo) [Example E191, trans-tert-butyl 3-fluoro-4-(2-(isoquinolin-6-ylcarbamoyl)cyclopropyl)benzoate], the Ki was 3 µM. `COc1ccc(CNC(=O)c2ccc([C@@H]3C[C@H]3C(=O)Nc3ccc4cnccc4c3)c(F)c2)cc1` (relative stereo) [Example E193, trans-3-fluoro-4-(2-(isoquinolin-6-ylcarbamoyl)cyclopropyl)-N-(4-methoxybenzyl)benzamide] showed a Ki of 0.11 µM.
